Test system: PBMCs from naïve RA patients
Test: ROS TEST: ROS production of PHA-activated PBMCs exposed to MTX, fluorimetry
Type: cell-based, human
Conditions: PBMCs of naïve RA patients with clinical remission at 6 months of methotrexate (n=17) versus those without (n=8), E. coli stimulated, ANOVA p 0.0003
From the text: Therefore, the decision was made to investigate a model of in vitro exposure of RA patients' cells to MTX and the measurement of its direct effect as a pharmacodynamic biomarker of response. […] Therefore, the hypothesis is that treatment of PBMCs with the drug methotrexate causes an increase in reactive oxygen species (ROS) production due to increased apoptosis in T lymphocytes in responder patients. […] Based on the above, in the present example the above two assays will be carried out using PBMCs obtained or isolated from RA patients. Briefly, first, a peripheral blood draw is performed from a rheumatoid arthritis patient who meets the inclusion criteria indicated below in the “Methodology” section, and peripheral blood mononuclear cells (PBMCs) are isolated by density gradient. These PBMCs are frozen and maintained in liquid nitrogen for a time period of at least two weeks. After this time, the PBMCs are thawed and incubated in a flat-bottomed p96 plate at 37° C. and 5% CO2 for 24 hours. The next day, phytohemagglutinin (PHA) and MTX are added to the corresponding wells and the plate is incubated for 48 hours. Finally, the probes corresponding to each test are added: • ROS test: ROS probe+E. coli • MONOCYTE test: resazurin Both tests were carried out on the same plate, read at Ex/Em 535/610 wavelengths, in a fluorescence reader.

## CN(Cc1cnc2nc(N)nc(N)c2n1)c1ccc(C(=O)N[C@@H](CCC(=O)O)C(=O)O)cc1 [MTX, methotrexate]
  ROS production levels (fluorescence units) after exposure of PBMCs to MTX: significantly increased

Reference: US20250347692A1, “METHOD FOR DETERMINING THE RESPONSE TO METHOTREXATE (MTX) IN A HUMAN SUBJECT DIAGNOSED WITH RHEUMATOID ARTHRITIS” (BIOHOPE SCIENTIFIC SOLUTIONS FOR HUMAN HEALTH, S.L, priority 2022, published 2025)
